Laboratory results published in ChEMBL document CHEMBL1130169, “Validation of EGSITE2, a mixed integer program for deducing objective site models for experimental binding data” (J Med Chem, 1997).

biological target: T1, Sex hormone-binding globulin (Homo sapiens) (UniProt P04278)
T1 sequence (whole entry): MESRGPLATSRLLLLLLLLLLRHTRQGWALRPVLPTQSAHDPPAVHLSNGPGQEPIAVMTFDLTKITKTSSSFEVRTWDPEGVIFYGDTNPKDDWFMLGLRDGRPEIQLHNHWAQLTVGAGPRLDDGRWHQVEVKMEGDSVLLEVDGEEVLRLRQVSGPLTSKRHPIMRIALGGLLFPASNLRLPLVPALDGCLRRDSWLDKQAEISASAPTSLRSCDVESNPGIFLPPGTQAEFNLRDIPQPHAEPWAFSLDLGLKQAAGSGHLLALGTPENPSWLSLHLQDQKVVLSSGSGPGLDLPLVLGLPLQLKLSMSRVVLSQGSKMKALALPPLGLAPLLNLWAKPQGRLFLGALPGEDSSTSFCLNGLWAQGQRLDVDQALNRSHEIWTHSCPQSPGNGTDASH
Description: Binding affinity towards human testosterone binding globulin.

Going from CC(=O)[C@H]1CC[C@H]2[C@@H]3CC=C4C[C@@H](O)CC[C@]4(C)[C@H]3CC[C@]12C to CC(=O)[C@@]1(O)CC[C@H]2[C@@H]3CC=C4C[C@@H](O)CC[C@]4(C)[C@H]3CC[C@@]21C, the -Log Kdiss falls from 6.15 to 5.36.

First: C[C@]12CCC(=O)C=C1CC[C@@H]1[C@@H]2CC[C@@]2(C)[C@H]1CC[C@]2(O)C(=O)CO
Second: CC(=O)[C@@]1(O)CC[C@H]2[C@@H]3CCC4=CC(=O)CC[C@]4(C)[C@H]3CC[C@@]21C
The -Log Kdiss of the first is higher: 6.2 for the first, 6 for the second.

Going from C[C@]12C[C@H](O)[C@H]3[C@@H](CCC4=CC(=O)CC[C@@]43C)[C@@H]1CC[C@@H]2C(=O)CO to C[C@]12CCC(=O)C=C1CCC1C3CC[C@H](C(=O)CO)[C@@]34C[C@H](OC4O)C12 (some centres undefined), the -Log Kdiss falls from 5.34 to 4.32.

Going from C[C@]12CCC(=O)C=C1CC[C@@H]1[C@@H]2C(=O)C[C@@]2(C)[C@H]1CC[C@]2(O)C(=O)CO to C[C@]12CCC(=O)C=C1CC[C@@H]1[C@@H]2[C@@H](O)C[C@@]2(C)[C@H]1CC[C@]2(O)C(=O)CO, the -Log Kdiss falls from 5.43 to 5.2.

Compared with C[C@]12CC[C@H]3[C@@H](CCC4=CC(=O)CC[C@@]43C)[C@@H]1CC[C@@H]2O, CC(=O)[C@H]1CC[C@H]2[C@@H]3CCC4=CC(=O)CC[C@]4(C)[C@H]3CC[C@]12C is lower in -Log Kdiss: 8.2 for the first, 5.94 for the second.

C[C@]12CCC(=O)C=C1CC[C@@H]1[C@@H]2CC[C@]2(C)C(=O)CC[C@@H]12 and C[C@]12CC[C@H]3[C@@H](CCC4=CC(=O)CC[C@@]43C)[C@@H]1CC[C@@H]2C(=O)CO are within 0.2 log units of each other in -Log Kdiss: 6.46 for the first, 6.38 for the second.

Compared with C[C@]12CC[C@H](O)C[C@@H]1CC[C@@H]1[C@@H]2CC[C@]2(C)[C@@H](O)CC[C@@H]12, C[C@]12CC[C@@H](O)C[C@@H]1CC[C@@H]1[C@@H]2CC[C@]2(C)C(=O)CC[C@@H]12 is lower in -Log Kdiss: 8.11 for the first, 6.15 for the second.

Compared with C[C@]12CC[C@@H]3c4ccc(O)cc4CC[C@H]3[C@@H]1C[C@@H](O)[C@@H]2O, C[C@]12CC[C@@H]3c4ccc(O)cc4CCC3[C@@H]1CCC2=O (single isomer, unassigned) is higher in -Log Kdiss: 5.63 for the first, 7.18 for the second.

Compared with C[C@]12CC[C@H](O)CC1=CCC1C2CC[C@]2(C)C(=O)CCC12 (some centres undefined), C[C@]12CCC3C(CC[C@@H]4CC(O)=CC[C@]34C)C1CCC2=O (some centres undefined) is lower in -Log Kdiss: 6.82 for the first, 5.15 for the second.

C[C@]12CCC(=O)C[C@@H]1CC[C@@H]1[C@@H]2CC[C@]2(C)[C@@H](O)CC[C@@H]12 was tested, and the -Log Kdiss was 8.74.
